# Measured values: patent US10174067B2, “Type of cytidine derivative and application thereof” (priority 2014, dated 2019)
# Marks after values point to notes of the source that are not given here.
# Legend:
# [1] = for Day 22 Mortality: single IP dose (mg/kg)
# Protocol: To determine the growth inhibition effect and toxicity of the cytidine derivative samples of the present invention on the transplanted tumor of nude mice bearing colon cancer HCT-116.
# The corresponding amount of test substance was taken in a 5 mL glass tube and dissolved in ethanol with a 5 mm magnetic stirrer for stirring. After dissolving completely, Cremophor EL was added with continuous stirring. The marked amount of saline was added and mixed evenly before use. The volume ratio of ethanol, Cremophor EL, and physiological saline was 5:5:90.
# Varieties and lines; Balb/c Nude mice; level: SPF; sex: female.
# 4.2 Animal inoculation and grouping: Each nude mouse was inoculated subcutaneously with 0.1 mL of cell suspension (3×10^6 cell/mouse) at right side of hind limb in a sterile stale. When the tumor grew to about 60-150 mm^3, the nude mice with similar tumor volume and desirable shape were selected (it would be better to select single spherical shape, no irregular shape or multiple tumors grouped together) for grouping, 6 mice a group. The grouping is as follows:
# The control group, namely the model control group, was injected with a mixture of ethanol, Cremophor EL, and saline (5:5:90).
# Those mice were weighed three times a week.
# All clinical symptoms of each animal should be recorded at the beginning of the test and during the test. The observations should be made at the same time each day.
# An animal would be killed by CO2 when its weight loss was more than 20%, when it was about to die, or when its tumor volume exceeded 2800 mm^3. The tumor was separated and weighed, and the animal was autopsied and observed to evaluate and record whether there were pathological changes in the organs.
# The data were expressed as Mean±SEM unless specially provided; Non-pairing T test was performed for the data between the two groups. P<0.05 was considered as significant difference.
# [2] = test system: HCT-116 colon cancer xenografts; test: Tumor growth inhibition of HCT-116 colon cancer xenografts in tumor-bearing nude mice (tumor volume, TGI %, RTV, T/C %); assay type: in vivo, Balb/c Nude mice
# Protocol: 4.1 Tumor cells: colon cancer HCT-116 cells, purchased from the Institute of Cell Biology, Chinese Academy of Sciences. The cells were incubated by F-12 medium (containing 10% FBS) in carbon dioxide incubator at 37° C. and in saturated humidity, with 5% CO2 and 95% air in volume fraction. Before inoculation, the cells at logarithmic phase were taken, and digested with 0.25% trypsin, washed once with PBS and resuspended in PBS for counting. The cells were resuspended in serum-free medium and adjusted to about 3×10^7 cell/mL.
# The grouping is as follows:
# The formations of tumor at the inoculation site of each group of nude mice were observed. The diameter of tumor nodule (D) was measured three times a week with round hole ruler, and the volume of tumor nodule (V) was calculated according to the following formula: […].
# Anti-tumor activity was evaluated by tumor growth inhibition rate TGI (%) and relative tumor proliferation rate T/C (%).
# The relative tumor volume (RTV) was calculated as: RTV=Vt/V0, where V0 was the tumor volume when they were grouped and administered, and Vt was the tumor volume at the time of measurement.
# The relative proliferation rate T/C (%) was calculated as: […].
# TRTV: RTV of the treatment group; CRTV: RTV of the control group.
# P<0.05 was considered as significant difference.
# [3] = Day 0, G3-G9 groups, single IP dose, Mean±SEM
# [4] = Day 4, G3-G9 groups, single IP dose, Mean±SEM
# [5] = Day 6, G3-G9 groups, single IP dose, Mean±SEM
# [6] = Day 8, G3-G9 groups, single IP dose, Mean±SEM
# [7] = Day 11, G3-G9 groups, single IP dose, Mean±SEM
# [8] = Day 13, G3-G9 groups, single IP dose, Mean±SEM
# [9] = Day 15, G3-G9 groups, single IP dose, Mean±SEM
# [10] = Day 18, G3-G9 groups, single IP dose, Mean±SEM
# [11] = Day 20, G3-G9 groups, single IP dose, Mean±SEM
# [12] = Day 22, G3-G9 groups, single IP dose, Mean±SEM
smiles,measurement,setting,value
"Cl.Nc1ccn([C@@H]2O[C@H](CO)[C@@H](O)C2(F)F)c(=O)n1 [Compound G1, 2′deoxy-2′,2′-difluorocytidine hydrochloride, reference compound]",Day 22 Mortality,[1]; Day 22,100%
"CC(C)(C)OC(=O)Nc1ccn([C@@H]2O[C@H](COC(=O)Cn3cnc([N+](=O)[O-])c3)[C@@H](O)C2(F)F)c(=O)n1 [Compound G9, 5′-O-[2-(4-nitro-1H-imidazole)acetate]-4-N-(tert-butoxycarbonyl)-2′-deoxy-2′,2′-difluorocytidine]",Day 0 (RTV),[2]; [3],1.00 ± 0.00
same,"Tumor volume, Day 0",[2]; [3],42.31 ± 7.52** mm^3
same,Day 4 (TGI %),"[2]; Day 4, G3-G9 groups, single IP dose",80.77%
same,Day 4 (RTV),[2]; [4],1.21 ± 0.16
same,"Tumor volume, Day 4",[2]; [4],51.25 ± 10.24** mm^3
same,Day 6 (TGI %),"[2]; Day 6, G3-G9 groups, single IP dose",80.67%
same,Day 6 (RTV),[2]; [5],1.82 ± 0.40
same,"Tumor volume, Day 6",[2]; [5],81.69 ± 23.70** mm^3
same,Day 8 (TGI %),"[2]; Day 8, G3-G9 groups, single IP dose",79.22%
same,Day 8 (RTV),[2]; [6],2.72 ± 0.82
same,"Tumor volume, Day 8",[2]; [6],109.19 ± 29.60** mm^3
same,Day 11 (TGI %),"[2]; Day 11, G3-G9 groups, single IP dose",76.07%
same,Day 11 (RTV),[2]; [7],4.91 ± 1.08
same,"Tumor volume, Day 11",[2]; [7],192.42 ± 37.84** mm^3
same,Day 13 (TGI %),"[2]; Day 13, G3-G9 groups, single IP dose",72.93%
same,Day 13 (RTV),[2]; [8],8.16 ± 1.87
same,"Tumor volume, Day 13",[2]; [8],314.26 ± 60.92** mm^3
same,Day 15 (TGI %),"[2]; Day 15, G3-G9 groups, single IP dose",60.81%
same,Day 15 (RTV),[2]; [9],13.83 ± 2.98
same,"Tumor volume, Day 15",[2]; [9],553.69 ± 115.02** mm^3
same,Day 18 (TGI %),"[2]; Day 18, G3-G9 groups, single IP dose",51.00%
same,Day 18 (RTV),[2]; [10],23.10 ± 5.36
same,"Tumor volume, Day 18",[2]; [10],907.03 ± 187.09** mm^3
same,Day 20 (TGI %),"[2]; Day 20, G3-G9 groups, single IP dose",42.39%
same,Day 20 (RTV),[2]; [11],31.85 ± 7.62
same,"Tumor volume, Day 20",[2]; [11],1221.09 ± 228.29** mm^3
same,Day 22 (RTV),[2]; [12],42.35 ± 10.48
same,"Tumor volume, Day 22",[2]; [12],1607.01 ± 297.45** mm^3
same,relative tumor volume compared with the model control group,"[2]; G4 and G5 Day 4 to Day 18, G7 Day 4 to Day 15 (p<0.05-0.01), G9 only Day 4 (p<0.05)",reduced significantly
same,maximum value of TGI %,"[2]; day of maximum: G3 Day 8, G4 Day 11, G5 Day 11, G9 Day 4, G7 Day 8, single IP",80.77%
same,"Weight change rate, Day 0",[1]; [3],0.00 ± 0.00%
same,"Weight of mice, Day 0",[1]; [3],20.55 ± 0.56 g
same,"Weight change rate, Day 4",[1]; [4],−0.08 ± 3.14%
same,"Weight of mice, Day 4",[1]; [4],20.48 ± 0.57 g
same,"Weight change rate, Day 6",[1]; [5],2.53 ± 2.85%
same,"Weight of mice, Day 6",[1]; [5],21.02 ± 0.48 g
same,"Weight change rate, Day 8",[1]; [6],3.54 ± 3.17%
same,"Weight of mice, Day 8",[1]; [6],21.22 ± 0.51 g
same,"Weight change rate, Day 11",[1]; [7],5.18 ± 2.98%
same,"Weight of mice, Day 11",[1]; [7],21.55 ± 0.43 g
same,"Weight change rate, Day 13",[1]; [8],7.65 ± 3.18%
same,"Weight of mice, Day 13",[1]; [8],22.05 ± 0.42 g
same,"Weight change rate, Day 15",[1]; [9],5.50 ± 3.26%
same,"Weight of mice, Day 15",[1]; [9],21.60 ± 0.33 g
same,"Weight change rate, Day 18",[1]; [10],3.38 ± 3.55%
same,"Weight of mice, Day 18",[1]; [10],21.17 ± 0.46 g
same,"Weight change rate, Day 20",[1]; [11],2.91 ± 3.85%
same,"Weight of mice, Day 20",[1]; [11],21.05 ± 0.36 g
same,"Weight change rate, Day 22",[1]; [12],8.18 ± 4.15%
same,"Weight of mice, Day 22",[1]; [12],22.13 ± 0.47 g
same,Day 22 Mortality,[1]; Day 22,0%
same,clinical symptoms,"[1]; after single IP dose, compared with model control group",no significant differences in clinical symptoms
